Test system: NHBE cells
Assay: Biolog metabolic array: substrate use by NHBE cells with or without CA09 infection
Format: cell-based, human
Details: for Substrate use, 590 nm absorbance normalized to zero hour, 1 hr: Biolog PMM2, 1 hr; for Substrate use, 590 nm absorbance normalized to zero hour, 5 hr: Biolog PMM2, 5 hr; for Substrate use, 590 nm absorbance normalized to zero hour, 7 hr: Biolog PMM2, 7 hr; for Substrate use, 590 nm absorbance normalized to zero hour, 0 hr: Biolog PMM2, 0 hr
[1] = Control (uninfected) NHBE cells
[2] = Virus (CA09-infected, MOI 1) NHBE cells
[3] = Virus: CA09-infected NHBE cells, MOI 1, Biolog PMM2
[4] = Virus (CA09, MOI 1) infected NHBE cells

Structure (SMILES)	590 nm absorbance normalized to zero hour (substrate use), 1 hr [1]	590 nm absorbance normalized to zero hour (substrate use), 2 hr [1]	590 nm absorbance normalized to zero hour (substrate use), 3 hr [1]	590 nm absorbance normalized to zero hour (substrate use), 4 hr [1]	590 nm absorbance normalized to zero hour (substrate use), 6 hr [1]	590 nm absorbance normalized to zero hour (substrate use), 8 hr [1]	590 nm absorbance normalized to zero hour (substrate use), 9 hr [1]	590 nm absorbance normalized to zero hour (substrate use), 10 hr [1]	590 nm absorbance normalized to zero hour (substrate use), 11 hr [1]	Substrate use, 590 nm absorbance normalized to zero hour, 1 hr [1]	Substrate use, 590 nm absorbance normalized to zero hour, 5 hr [1]	Substrate use, 590 nm absorbance normalized to zero hour, 7 hr [1]	590 nm absorbance normalized to zero hour (substrate use), 1 hr [2]	590 nm absorbance normalized to zero hour (substrate use), 2 hr [2]	590 nm absorbance normalized to zero hour (substrate use), 3 hr [2]	590 nm absorbance normalized to zero hour (substrate use), 4 hr [2]	590 nm absorbance normalized to zero hour (substrate use), 6 hr [2]	590 nm absorbance normalized to zero hour (substrate use), 8 hr [2]	590 nm absorbance normalized to zero hour (substrate use), 9 hr [2]	590 nm absorbance normalized to zero hour (substrate use), 10 hr [2]	further results
OC[C@H]1O[C@@H](O[C@@H]2[C@@H](CO)OC(O)(CO)[C@H]2O)[C@H](O)[C@@H](O)[C@H]1O (mixture of isomers) [Lactulose]	1.71	2.30	2.70	2.88	3.78	4.04	4.27	4.46	5.14	1.71	3.40	3.82	1.68	2.24	2.56	2.71	3.31	3.70	4.05	4.25	590 nm absorbance normalized to zero hour (substrate use), 5 hr [2]: 3.13; 590 nm absorbance normalized to zero hour (substrate use), 7 hr [2]: 3.50; 590 nm absorbance normalized to zero hour (substrate use), 11 hr [2]: 4.63; 590 nm absorbance normalized to zero hour (substrate use), 1 hr [3]: 1.68; 590 nm absorbance normalized to zero hour (substrate use), 2 hr [3]: 2.24; 590 nm absorbance normalized to zero hour (substrate use), 3 hr [3]: 2.56; 590 nm absorbance normalized to zero hour (substrate use), 4 hr [3]: 2.71; 590 nm absorbance normalized to zero hour (substrate use), 5 hr [3]: 3.13; 590 nm absorbance normalized to zero hour (substrate use), 6 hr [3]: 3.31; 590 nm absorbance normalized to zero hour (substrate use), 7 hr [3]: 3.50; 590 nm absorbance normalized to zero hour (substrate use), 8 hr [3]: 3.70; 590 nm absorbance normalized to zero hour (substrate use), 9 hr [3]: 4.05; 590 nm absorbance normalized to zero hour (substrate use), 10 hr [3]: 4.25; 590 nm absorbance normalized to zero hour (substrate use), 11 hr [3]: 4.63
O=P(O)(O)OC[C@H](O)CO (racemic) [D,L-a-Glycerol Phosphate]	0.34	0.48	0.56	0.60	0.71	0.83	0.91	0.91	1.05	0.34	0.70	0.79	2.01	2.64	3.07	3.24	3.99	4.43	4.93	5.12	590 nm absorbance normalized to zero hour (substrate use), 0 hr [1]: 1.00; Substrate use, 590 nm absorbance normalized to zero hour, 0 hr [1]: 1.00; Substrate use, 590 nm absorbance normalized to zero hour, 0 hr [4]: 1.00; Substrate use, 590 nm absorbance normalized to zero hour, 1 hr [4]: 2.01; Substrate use, 590 nm absorbance normalized to zero hour, 5 hr [4]: 3.72; Substrate use, 590 nm absorbance normalized to zero hour, 7 hr [4]: 4.18; 590 nm absorbance normalized to zero hour (substrate use), 0 hr [2]: 1.00; 590 nm absorbance normalized to zero hour (substrate use), 11 hr [2]: 5.62
CC[C@H](O)C(=O)O (racemic) [D,L-a-Hydroxy-Butyric Acid]	0.92	1.05	0.99	1.01	0.56	0.72	1.79	0.74	2.19	0.92	1.18	1.41	1.29	1.58	1.74	1.84	2.10	2.26	2.35	2.39	590 nm absorbance normalized to zero hour (substrate use), 0 hr [1]: 1.00; Substrate use, 590 nm absorbance normalized to zero hour, 0 hr [1]: 1.00; 590 nm absorbance normalized to zero hour (substrate use), 0 hr [2]: 1.00; 590 nm absorbance normalized to zero hour (substrate use), 5 hr [2]: 2.00; 590 nm absorbance normalized to zero hour (substrate use), 7 hr [2]: 2.18; 590 nm absorbance normalized to zero hour (substrate use), 11 hr [2]: 2.21; 590 nm absorbance normalized to zero hour (substrate use), 0 hr [3]: 1.00; 590 nm absorbance normalized to zero hour (substrate use), 1 hr [3]: 1.29; 590 nm absorbance normalized to zero hour (substrate use), 2 hr [3]: 1.58; 590 nm absorbance normalized to zero hour (substrate use), 3 hr [3]: 1.74; 590 nm absorbance normalized to zero hour (substrate use), 4 hr [3]: 1.84; 590 nm absorbance normalized to zero hour (substrate use), 5 hr [3]: 2.00; 590 nm absorbance normalized to zero hour (substrate use), 6 hr [3]: 2.10; 590 nm absorbance normalized to zero hour (substrate use), 7 hr [3]: 2.18; 590 nm absorbance normalized to zero hour (substrate use), 8 hr [3]: 2.26; 590 nm absorbance normalized to zero hour (substrate use), 9 hr [3]: 2.35; 590 nm absorbance normalized to zero hour (substrate use), 10 hr [3]: 2.39; 590 nm absorbance normalized to zero hour (substrate use), 11 hr [3]: 2.21
CC(O)CO (stereo not drawn) [1,2-Propanediol]	1.28	1.41	1.17	1.19	0.68	1.12	1.22	1.15	1.18	1.28	1.27	1.17	1.95	2.44	2.83	2.94	3.55	3.87	4.24	4.34	590 nm absorbance normalized to zero hour (substrate use), 0 hr [1]: 1.00; Substrate use, 590 nm absorbance normalized to zero hour, 0 hr [1]: 1.00; 590 nm absorbance normalized to zero hour (substrate use), 0 hr [2]: 1.00; 590 nm absorbance normalized to zero hour (substrate use), 5 hr [2]: 3.29; 590 nm absorbance normalized to zero hour (substrate use), 7 hr [2]: 3.75; 590 nm absorbance normalized to zero hour (substrate use), 11 hr [2]: 4.75; 590 nm absorbance normalized to zero hour (substrate use), 0 hr [3]: 1.00; 590 nm absorbance normalized to zero hour (substrate use), 1 hr [3]: 1.95; 590 nm absorbance normalized to zero hour (substrate use), 2 hr [3]: 2.44; 590 nm absorbance normalized to zero hour (substrate use), 3 hr [3]: 2.83; 590 nm absorbance normalized to zero hour (substrate use), 4 hr [3]: 2.94; 590 nm absorbance normalized to zero hour (substrate use), 5 hr [3]: 3.29; 590 nm absorbance normalized to zero hour (substrate use), 6 hr [3]: 3.55; 590 nm absorbance normalized to zero hour (substrate use), 7 hr [3]: 3.75; 590 nm absorbance normalized to zero hour (substrate use), 8 hr [3]: 3.87; 590 nm absorbance normalized to zero hour (substrate use), 9 hr [3]: 4.24; 590 nm absorbance normalized to zero hour (substrate use), 10 hr [3]: 4.34; 590 nm absorbance normalized to zero hour (substrate use), 11 hr [3]: 4.75

From patent publication US11083725B2 (priority 2014, dated 2021)
